In patent US20020058266A1, “EF-Tu protein encoded on the plastid DNA of the malaria parasite and protein synthesis inhibitors effective as anti-malarial compounds” (priority 1997, published 2002):
*1 amine or outer side, *2 acyl side, *3 side chain or, on linkers, in order; H or OH if unused. Where a SMILES comes first, the peptide text is derived from it. Bridges are numbered along the chain shown (N, C = ends). [ ]: non-standard residue; d: D form. The star is where a group is joined. X1 = NC1=N[C@@H]([C@H](N[*:1])C(=O)[*:2])C[C@H](O)N1; ΔAla(Z-3-ureido) = NC(=O)N/C=C(\N)C(=O)O; β3hOrn = NCCC[C@H](N)CC(=O)*; Dap = NC[C@H](N)C(=O)O

Legend:
[1] = molecular target: T1, heterologously expressed Pf EF-Tupl (Plasmodium falciparum, UniProt Q25820); assay: Band shift in native polyacrylamide gel with expressed Pf EF-Tupl; format: binding; details: 100 μM antibiotic, 100 μM GDP, native 12% polyacrylamide gel
T1 construct: one clone in JM109 contained the complete insert; GST (cleaved yes); made in house; host or cells: E. coli JM109 (pGEX)
Procedure: FIG. 13 contains immunoblots showing that binding of antibiotics modifies migration of EF-Tu.GDP in native polyacrylamide gels. Two segments of the same gel show A) heterologously expressed Pf EF-Tupl protein detected with a malaria peptide-specific antibody and B) E.coli EF-Tu detected with a specific antibody (Breidenbach et al 1990). Lanes without antibiotics (1 and 5), lanes with 100 μM antibiotic: GE2270A (2 and 6), enacyloxin lla (3 and 7), kirromycin (4 and 8). Arrows indicate uncomplexed EF-Tu.
Drug binding—Thiostrepton binding to short rRNA transcripts generated in vitro was assayed according to Ryan et al 1991, as modified by Clough et al 1997. […] Before […], samples were incubated on ice for 15 mins in 50 mM imidazole acetate (pH 7.6), 10 mM NH4Cl, 10 mM MgCl2, 1 mM […] and 100 μM GDP, in a final volume of 20 μl.
The material tufA gene in pGEX was expressed as an insoluble fusion protein in E.coli JM 109. The protein was detected either with antibodies to the GST tag or with antibodies to a specific peptide sequence in domain I ([…]) not found on E.coli EF-Tu. Washed inclusion bodies were dissolved and refolded by dilution (Lin et al 1991).

[2] = tested on: erythrocytic stages of P.falciparum; assay: Incorporation of radiotracers (3H-hypoxanthine, 14C-isoleucine) by P.falciparum growing in blood cultures; format: cell-based, Plasmodium falciparum
Procedure: Antibiotics—Samples of Mocimycin (kirromycin), Aurodox (N-methylated kirromycin), and Efrotomycin (a glycoside of kirromycin) were used. Aurodox was dissolved in RPMI-Albumax medium (Grande et al 1977), kirromycin was dissolved in RPMI made alkaline by addition of 1M NaOH, and efrotomycin was dissolved in ethanol before dilution in culture medium. Enacyloxin IIA was dissolved in 1% NaHCO3 prior to dilution in RPMI-Albumax medium. The antibiotic GE2270A was dissolved in 100% DMSO before dilution in culture medium. Fusidic acid (Sigma) was dissolved directly in culture medium, and thiostrepton (Sigma) in 100% DMSO before dilution in culture medium. A hemisuccinate form of thiostrepton was prepared as a potassium salt, according to Bodanszky et al 1965. Incorporation of radiotracers by P.falciparum growing in blood cultures in the presence and absence of drugs was carried out as described (Strath et al 1993).
Kirromycin: Kirromycin-resistant forms of bacterial EF-Tu are modified at one of seven amino acids along the opposing interfaces of domains I and III (Mesters et al 1994 and Abdulkarim et al 1994) and Pf EF-Tupl has a substitution at one of these sites (A375S-E.coli numbers) that could potentially confer resistance to kirromycin. To test this possibility, kirromycin (Mocimycin), its methylated derivative Aurodox or its disaccharide derivative Efrotomycin were incubated with erythrocytic stages of P.falciparum grown in cultures over a 36 hr period. The incorporation of both ^3H-hypoxanthine and ^14C-isoleucine was inhibited in a dose-dependent fashion, maximum inhibition being achieved at 100 μM kirromycin (FIG. 5). […] Once maximal depression of incorporation had been reached at any particular dose of drug, residual incorporation continued at a uniform rate thereafter. Vital staining with rhodamine 123, a fluorescent dye that concentrates within the mitochondrion (Divo et al. 1985) confirmed the parasiticidal effect, loss of specific mt staining being evident within 2-3 hours (data not shown). […] Blood cultures of P.falciparum were about 10 times more sensitive to the antibiotic than a gram-positive bacterium (Corynebacterium spp) used in parallel bioassays.

[3] = tested on: P.chabaudi; assay: Mice infected with P.chabaudi; format: in vivo; details: even at toxic dose levels, preliminary experiments
Procedure: The solid line is for aurodox, the dotted line is for mocimycin and the dashed line is for no drug controls. The arrows on the x-axis indicate days on which three 0.1 ml 100 mM ip injections were given.
On the basis of these findings, preliminary studies were carried out on mice infected with P.chabaudi. In the first experiment, mice were infected and inoculated on the same day intraperitoneally with 0.1 ml of 100 mM Aurodox, a dose calculated to mimic the maximal inhibitory effect observed in vitro. […] In a single experiment.

T1 sequence (Q25820 whole entry): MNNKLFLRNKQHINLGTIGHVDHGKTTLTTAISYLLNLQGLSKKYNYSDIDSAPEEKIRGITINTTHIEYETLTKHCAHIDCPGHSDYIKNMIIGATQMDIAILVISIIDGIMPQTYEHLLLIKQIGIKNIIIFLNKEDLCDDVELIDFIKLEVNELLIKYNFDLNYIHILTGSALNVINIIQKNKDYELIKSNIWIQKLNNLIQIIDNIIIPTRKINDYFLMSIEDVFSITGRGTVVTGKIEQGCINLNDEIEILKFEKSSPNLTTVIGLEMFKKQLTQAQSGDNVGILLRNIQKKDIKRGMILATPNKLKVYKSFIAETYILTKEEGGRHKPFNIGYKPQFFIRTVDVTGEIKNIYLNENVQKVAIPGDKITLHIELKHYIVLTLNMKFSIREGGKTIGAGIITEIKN

Question: With CC/C=C/C(OC(N)=O)C(Cl)C(O)CC(=O)C(O)C(O)C(C)/C(Cl)=C/C=C/C=C(C)/C=C/C=C/C(=O)O[C@@H]1C[C@@H](C(=O)O)CC[C@@H]1O (stereo partly drawn) [Enacyloxin IIa] as the compound, how does the “mobility (Mr) of the GDP form of the EF-Tu complex” value [1] read?
Answer: The value was “increased”.

Question: Which “concentration at which maximum inhibition of radiotracer incorporation was achieved” value ([2]; 3H-hypoxanthine and 14C-isoleucine, cultures over a 36 hr period) does the source give for CC(=O)O[C@H]1C[C@@]2(C)[C@@H](C[C@@H](O)[C@H]3[C@@]4(C)CC[C@@H](O)[C@@H](C)[C@@H]4CC[C@@]32C)/C1=C(\CCC=C(C)C)C(=O)O [Fusidic acid] here?
Answer: The value was 200 µM.

Question: What about the “effect on parasitaemias in mice” value [3] of the same compound?
Answer: Its value is “little effect on parasitaemias”.

Question: With CNC(=O)C[C@@H]1NC(=O)c2csc(n2)-c2ccc(-c3nc(C4=N[C@H](C(=O)N5CCC[C@H]5C(N)=O)CO4)cs3)nc2-c2csc(n2)-c2csc(n2)[C@H]([C@@H](O)c2ccccc2)NC(=O)CNC(=O)c2nc(sc2COC)[C@H](C(C)C)NC(=O)c2nc1sc2C [GE2270] as the compound, how does the “inhibition of radiotracer incorporation in blood cultures, compared with other antibiotics” value ([2]; 3H-hypoxanthine and 14C-isoleucine, blood cultures) read?
Answer: The value was “more inhibitory in blood cultures than either kirromycin or thiostrepton”.

Question: And the “mobility (Mr) of the GDP form of the EF-Tu complex” value [1]?
Answer: The value was “decreased”.

Question: With NCCC[C@H](N)CC(=O)N[C@H]1CNC(=O)[C@H]([C@H]2C[C@H](O)NC(N)=N2)NC(=O)/C(=C/NC(N)=O)NC(=O)[C@H](CO)NC(=O)[C@H](CO)NC1=O [viomycin] (β3hOrn-[Dap]SS[ΔAla(Z-3-ureido)][X1]; lactam 1-C) as the compound, how does the “effect on P.falciparum (specificity control)” value ([2]; data not shown) read?
Answer: The value was “lack of effect”.
